According to ChEMBL document CHEMBL1122074 (1982):
Activity calls are given as the source filed them. The rule behind the calls is not given here.

Columns and labels:
[1] = Molar potency (1/IC50) in the guinea pig ileum divided by its potency in the mouse vas deferens.; format: functional
[2] = target: Opioid receptors; mu/kappa/delta (Homo sapiens) (UniProt P41145+P41143+P35372); experiment: In vitro relative potency to morphine (IC50, 6.8E-8M) in guinea pig ileum was determined; inactive (potentiates contraction at >/=5.4E-8M); format: functional, tissue-based; conditions: Cavia porcellus, target entry is the homologue from another species
Opioid receptors; mu/kappa/delta (Homo sapiens), sequence (P35372 whole entry, looked up): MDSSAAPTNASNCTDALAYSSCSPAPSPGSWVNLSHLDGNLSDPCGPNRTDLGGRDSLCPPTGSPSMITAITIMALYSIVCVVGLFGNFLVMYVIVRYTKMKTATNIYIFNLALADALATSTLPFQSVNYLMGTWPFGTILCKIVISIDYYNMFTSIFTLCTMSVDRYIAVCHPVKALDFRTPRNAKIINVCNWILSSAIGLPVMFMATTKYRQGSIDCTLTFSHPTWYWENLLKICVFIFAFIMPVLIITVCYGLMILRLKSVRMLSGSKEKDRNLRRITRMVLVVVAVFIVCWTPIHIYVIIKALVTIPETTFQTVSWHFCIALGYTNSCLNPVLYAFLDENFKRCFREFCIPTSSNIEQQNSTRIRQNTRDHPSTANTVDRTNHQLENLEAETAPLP
Opioid receptors; mu/kappa/delta (Homo sapiens), sequence (P41143 whole entry, looked up): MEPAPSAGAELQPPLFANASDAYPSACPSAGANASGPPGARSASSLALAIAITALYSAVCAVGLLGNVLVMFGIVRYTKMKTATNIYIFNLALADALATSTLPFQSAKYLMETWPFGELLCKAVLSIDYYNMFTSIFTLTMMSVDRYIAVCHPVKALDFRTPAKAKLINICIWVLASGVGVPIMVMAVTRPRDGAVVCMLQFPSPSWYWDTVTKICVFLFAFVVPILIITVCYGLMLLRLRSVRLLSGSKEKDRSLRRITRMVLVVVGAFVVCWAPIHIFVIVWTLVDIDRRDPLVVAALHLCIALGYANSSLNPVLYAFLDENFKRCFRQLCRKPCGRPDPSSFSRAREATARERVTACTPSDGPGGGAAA
Opioid receptors; mu/kappa/delta (Homo sapiens), sequence (P41145 whole entry, looked up): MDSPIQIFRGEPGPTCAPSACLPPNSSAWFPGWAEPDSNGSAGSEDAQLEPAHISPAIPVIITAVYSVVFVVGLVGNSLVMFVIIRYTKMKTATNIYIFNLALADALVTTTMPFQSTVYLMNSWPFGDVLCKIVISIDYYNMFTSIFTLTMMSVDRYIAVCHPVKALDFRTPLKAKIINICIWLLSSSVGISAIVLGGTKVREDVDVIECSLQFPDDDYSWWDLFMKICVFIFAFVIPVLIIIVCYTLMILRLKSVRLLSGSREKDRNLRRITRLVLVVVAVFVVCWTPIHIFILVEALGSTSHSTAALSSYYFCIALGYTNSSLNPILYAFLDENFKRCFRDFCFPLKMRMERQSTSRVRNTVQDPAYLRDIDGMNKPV

[3] = target: T1, Opioid receptor (Mus musculus) (UniProt P42866+P32300+P33534); experiment: In vitro relative potency to morphine (IC50, 4.4E-8M) in mouse vas deferens was determined; inactive (potentiates contraction at >/=1.6E-6M); format: functional, tissue-based
T1 sequence (P32300 whole entry, looked up): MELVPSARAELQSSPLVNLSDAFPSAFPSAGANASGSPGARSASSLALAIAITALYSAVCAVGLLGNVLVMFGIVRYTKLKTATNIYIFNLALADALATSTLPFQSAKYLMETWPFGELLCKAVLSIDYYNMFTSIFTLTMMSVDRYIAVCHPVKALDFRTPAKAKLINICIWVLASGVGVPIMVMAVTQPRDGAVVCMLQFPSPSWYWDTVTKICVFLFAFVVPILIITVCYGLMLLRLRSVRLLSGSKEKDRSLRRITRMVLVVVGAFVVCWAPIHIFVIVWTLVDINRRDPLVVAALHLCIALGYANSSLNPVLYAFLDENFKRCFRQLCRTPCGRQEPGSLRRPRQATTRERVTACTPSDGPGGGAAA
T1 sequence (P33534 whole entry, looked up): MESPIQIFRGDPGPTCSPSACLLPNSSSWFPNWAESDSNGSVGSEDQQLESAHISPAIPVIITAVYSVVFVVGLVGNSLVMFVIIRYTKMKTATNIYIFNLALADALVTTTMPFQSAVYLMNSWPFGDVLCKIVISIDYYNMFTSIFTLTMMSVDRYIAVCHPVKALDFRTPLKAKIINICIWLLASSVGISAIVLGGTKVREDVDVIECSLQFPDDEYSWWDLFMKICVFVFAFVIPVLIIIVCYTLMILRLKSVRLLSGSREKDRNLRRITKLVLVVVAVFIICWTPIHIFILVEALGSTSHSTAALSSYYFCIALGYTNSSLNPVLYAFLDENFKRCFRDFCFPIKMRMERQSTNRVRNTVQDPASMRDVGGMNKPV
T1 sequence (P42866 whole entry, looked up): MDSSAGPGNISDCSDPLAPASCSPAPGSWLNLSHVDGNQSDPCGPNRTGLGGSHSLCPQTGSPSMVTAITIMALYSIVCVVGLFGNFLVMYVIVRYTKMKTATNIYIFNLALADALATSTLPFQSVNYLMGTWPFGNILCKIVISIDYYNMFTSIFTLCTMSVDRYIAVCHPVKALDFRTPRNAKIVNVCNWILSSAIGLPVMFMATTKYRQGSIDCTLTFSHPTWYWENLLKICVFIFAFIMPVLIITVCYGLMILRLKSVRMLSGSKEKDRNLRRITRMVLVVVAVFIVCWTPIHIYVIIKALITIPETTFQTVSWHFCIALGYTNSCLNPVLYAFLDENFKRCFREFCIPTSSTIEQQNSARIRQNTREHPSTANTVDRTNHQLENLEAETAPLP

[4] = target: T1, Opioid receptor (Mus musculus); experiment: […] relative molar potency represents the morphine ED50 ([…])/compound ED50 using the hotplate procedure in mice; inactive at 140 umol/kg; format: functional

Row | Structure (SMILES) | Molar potency [1] | Relative molar potency [2] | Relative molar potency [3] | Relative molar potency [4]
1 | CCC(=O)C(c1ccccc1)(c1ccccc1)C(C)CN(C)C (single isomer, unassigned) | 2.3 |  |  | 
2 | CCC(=O)C(c1ccccc1)(c1ccccc1)[C@@H](C)[C@H](C)N(C)C (racemic) |  | inactive | inactive | inactive
3 | CN1CC[C@]23c4c5ccc(O)c4O[C@H]2[C@@H](O)C=C[C@H]3[C@H]1C5 [MORPHINE] | 6.5 |  |  | 
4 | CCC(=O)C(c1ccccc1)(c1ccccc1)[C@@H](C)[C@@H](C)N(C)C (single isomer, unassigned) | 6.9 |  |  | 
5 | CCC(=O)C(c1ccccc1)(c1ccccc1)[C@H](C)[C@H](C)N(C)C (single isomer, unassigned) | 1.7 |  |  | 
